Experimental data: patent US6020176A, “Kaurene synthase” (The Institute of Physical and Chemical Research, priority 1995, dated 2000)

System: ent-kaurene synthase B (KSB)
Assay: Properties of KSB with the phenyl-purified enzyme preparation (pH, Km, cations)
Assay type: biochemical, Cucurbita maxima L.
Conditions: for effect of divalent cation on KSB activity: 0.1-50 mM as chlorides, instead of 5 mM Mg2+; for effect of divalent cation on KSB activity / optimal concentration of cation for KSB activity: FIG. 4; for optimal concentration of cation for KSB activity: cation as chloride instead of 5 mM Mg2+
Description: The mixture was incubated at 30° C. for 30 min, and the enzyme reaction was terminated by the addition of acetone (200 μL) and water (100 μL). The mixture was extracted with n-hexane (400 μL), and 300 μL alibuots of the extract were concentrated in vacuo and applied to a silica gel plate. After developing with n-hexane, the radioactivity of the silica gel of the ent-kaurene region (Rf 0.6-1.0) was determined. One unit of kaurene synthase activity was defined as the production of 1 pmol of ent-kaurene per minute.
The amount of [1-^3 H]CPP was 2.2 kBq and the incubation period was 15 min. The other conditions were the same as those for the enzyme assay. To determine the optimal pH, KPi buffer (50 mM) adjusted to a particular pH (pH 4.5 to 9.0) was used. […] The production of ent-kaurene was calculated and the Km value was determined from a Lineweaver-Burk plot.

| Structure (SMILES) | effect of divalent cation on KSB activity | effect on KSB activity in combination with 5 mM Mg2+ (added together with 5 mM Mg2+) | optimal concentration of cation for KSB activity | also measured |
| --- | --- | --- | --- | --- |
| [Ba+2].[Cl-].[Cl-] [Ba^2+] | showed no effects | inhibited KSB activity promoted by Mg^2+ |  |  |
| [Ca+2].[Cl-].[Cl-] [Ca^2+] | showed no effects | inhibited KSB activity promoted by Mg^2+ |  |  |
| [Cl-].[Cl-].[Co+2] [Co^2+] | promoted KSB activity |  | around 10 mM |  |
| [Cl][Cu][Cl] [Cu^2+] | showed no effects | inhibited KSB activity promoted by Mg^2+ |  | concentration completely inhibiting the conversion promoted by 5 mM Mg2+ (added together with 5 mM Mg2+): above 0.5 mM |
| O=C(O)CN(CCN(CC(=O)O)CC(=O)O)CC(=O)O [EDTA] |  |  |  | effect of EDTA on KSB activity (EDTA 1-100 mM): did not change KSB activity |
| [Cl][Fe][Cl] [Fe^2+] | weakly promoted KSB activity |  |  |  |
| [Cl-].[Cl-].[Mg+2] [Mg^2+] | promoted KSB activity |  | around 10 mM |  |
| [Cl][Mn][Cl] [Mn^2+] | promoted KSB activity |  | around 10 mM |  |
| [Cl][Ni][Cl] [Ni^2+] | weakly promoted KSB activity |  |  |  |
| C=C1CC[C@@H]2C(C)(C)CCC[C@@]2(C)[C@@H]1CC/C(C)=C/COP(=O)(O)OP(=O)(O)O [[15-^3 H]CPP, copalyl pyrophosphate] |  |  |  | Km (phenyl-purified enzyme preparation, CPP 7 to 480 nM, Lineweaver-Burk plot): 0.35 µM |
